This note sets out measurements from patent US9326973B2, “Hepatitis C virus inhibitors” (priority 2012, dated 2016).

This experiment deals with HCV replicon, genotype-1a variant with glutamine 30 changed to glutamate in the NS5A protein. The experiment can be described thus: microbe, parasite or virus in culture. Particulars: HCV replicon genotype 1a Q30E (Q→E) variant; test compound titrated with an NS5A-targeting compound (BMS-790052 fixed at 200 nM); ranking of synergist activity. The format is cell-based, HCV genotype 1a. The text has this: The NS5A synergistic inhibitory effect of test compounds can be determined using various amounts of an NS5A-targeting compound with titration of a second compound of interest. […] In one embodiment, the HCV genotype strain can be genotype 1a containing a change at amino acid 30 of the NS5A protein consisting of glutamine to glutamate. The test compound can be chosen from compounds listed above or from others present in the literature.

Take `CC(C)(NCC(F)(F)F)C(=O)N[C@H](c1nc(-c2ccc(-c3ccc(-c4c[nH]c([C@@H](NC(=O)C(C)(C)NCC(F)(F)F)C(C)(C)C)n4)cc3)cc2)c[nH]1)C(C)(C)C` [Compound L-50]: the “Fold-Synergistic 1a (Q30E)” value is recorded as over 100 fold.
On to `CC(C)(C)[C@H](NC(=O)[C@@H]1CCCCN1CC(F)(F)F)c1nc(-c2ccc(-c3ccc(-c4c[nH]c([C@@H](NC(=O)[C@@H]5CCCCN5CC(F)(F)F)C(C)(C)C)n4)cc3)cc2)c[nH]1` [Compound L-51], for which the “Fold-Synergistic 1a (Q30E)” value is listed as over 100 fold.
In the case of `CC(C)(C)[C@H](NC(=O)[C@@H]1CCCN1CC(F)(F)F)c1nc(-c2ccc(-c3ccc(-c4c[nH]c([C@@H](NC(=O)[C@@H]5CCCN5CC(F)(F)F)C(C)(C)C)n4)cc3)cc2)c[nH]1` [Compound L-52] it was over 100 fold; in that of `CC1(C)CC(C(=O)N[C@H](c2nc(-c3ccc(-c4ccc(-c5c[nH]c([C@@H](NC(=O)C6CC(C)(C)C6)C(C)(C)C)n5)cc4)cc3)c[nH]2)C(C)(C)C)C1` [Compound L-53], over 100 fold.
Consider `COC1CC(C(=O)N[C@H](c2nc(-c3ccc(-c4ccc(-c5c[nH]c([C@@H](NC(=O)C6CC(OC)C6)C(C)(C)C)n5)cc4)cc3)c[nH]2)C(C)(C)C)C1` (stereo partly drawn) [Compound L-54], for which the “Fold-Synergistic 1a (Q30E)” value is over 100 fold.
Consider `CC(C)(C)OC(=O)N1[C@H](C(=O)N[C@H](c2nc(-c3ccc(-c4ccc(-c5c[nH]c([C@@H](NC(=O)[C@@H]6COC(C)(C)N6C(=O)OC(C)(C)C)C(C)(C)C)n5)cc4)cc3)c[nH]2)C(C)(C)C)COC1(C)C` [Compound L-55], for which the “Fold-Synergistic 1a (Q30E)” value is reported as over 100 fold.
As to `CC(C)(CO)C(=O)N[C@H](c1nc(-c2ccc(-c3ccc(-c4c[nH]c([C@@H](NC(=O)C(C)(C)CO)C(C)(C)C)n4)cc3)cc2)c[nH]1)C(C)(C)C` [Compound L-56], the “Fold-Synergistic 1a (Q30E)” value is on record as over 100 fold.
With `CC(C)(C)OC(=O)N1CC2(CC(C(=O)N[C@H](c3nc(-c4ccc(-c5ccc(-c6c[nH]c([C@@H](NC(=O)C7CC8(C7)CN(C(=O)OC(C)(C)C)C8)C(C)(C)C)n6)cc5)cc4)c[nH]3)C(C)(C)C)C2)C1` (stereo partly drawn) [Compound L-57] the figure was over 100 fold.
`CC(C)(C)[C@H](NC(=O)C1(C)CC1(F)F)c1nc(-c2ccc(-c3ccc(-c4c[nH]c([C@@H](NC(=O)C5(C)CC5(F)F)C(C)(C)C)n4)cc3)cc2)c[nH]1` (stereo partly drawn) [Compound L-58a]: the “Fold-Synergistic 1a (Q30E)” value is listed as over 100 fold.
In the case of `CC(C)(C)OC(=O)N1CC(C)(C)OC[C@H]1C(=O)N[C@H](c1nc(-c2ccc(-c3ccc(-c4c[nH]c([C@@H](NC(=O)[C@@H]5COC(C)(C)CN5C(=O)OC(C)(C)C)C(C)(C)C)n4)cc3)cc2)c[nH]1)C(C)(C)C` [Compound L-60], the “Fold-Synergistic 1a (Q30E)” value is over 100 fold.
With `CC(C)(C)OC(=O)N1CCOC[C@H]1C(=O)N[C@H](c1nc(-c2ccc(-c3ccc(-c4c[nH]c([C@@H](NC(=O)[C@@H]5COCCN5C(=O)OC(C)(C)C)C(C)(C)C)n4)cc3)cc2)c[nH]1)C(C)(C)C` [Compound L-61], the “Fold-Synergistic 1a (Q30E)” value was over 100 fold.
`CN(CC(F)(F)F)C(C)(C)C(=O)N[C@H](c1nc(-c2ccc(-c3ccc(-c4c[nH]c([C@@H](NC(=O)C(C)(C)N(C)CC(F)(F)F)C(C)(C)C)n4)cc3)cc2)c[nH]1)C(C)(C)C` [Compound L-62]: the “Fold-Synergistic 1a (Q30E)” value is over 100 fold.
Regarding `CC(C)(C)OC(=O)N1CC(C)(C(=O)N[C@H](c2nc(-c3ccc(-c4ccc(-c5c[nH]c([C@@H](NC(=O)C6(C)CN(C(=O)OC(C)(C)C)C6)C(C)(C)C)n5)cc4)cc3)c[nH]2)C(C)(C)C)C1` [Compound L-63], the “Fold-Synergistic 1a (Q30E)” value was over 100 fold.
With `CC(C)(C)[C@H](NC(=O)[C@H]1CCCO1)c1nc(-c2ccc(-c3ccc(-c4c[nH]c([C@@H](NC(=O)[C@H]5CCCO5)C(C)(C)C)n4)cc3)cc2)c[nH]1` [Compound L-64] the figure was over 100 fold.
Turning to `CC(C)(C)[C@H](NC(=O)[C@@H]1CCCO1)c1nc(-c2ccc(-c3ccc(-c4c[nH]c([C@@H](NC(=O)[C@@H]5CCCO5)C(C)(C)C)n4)cc3)cc2)c[nH]1` [Compound L-65], the “Fold-Synergistic 1a (Q30E)” value is over 100 fold.
With `CC(C)(C)[C@H](NC(=O)C(C)(O)C(F)(F)F)c1nc(-c2ccc(-c3ccc(-c4c[nH]c([C@@H](NC(=O)C(C)(O)C(F)(F)F)C(C)(C)C)n4)cc3)cc2)c[nH]1` (stereo partly drawn) [Compound L-66a], the “Fold-Synergistic 1a (Q30E)” value was over 100 fold.
In the case of `CC(C)(C)[C@H](NC(=O)[C@H]1[C@@H]2COC[C@@H]21)c1nc(-c2ccc(-c3ccc(-c4c[nH]c([C@@H](NC(=O)[C@H]5[C@@H]6COC[C@@H]65)C(C)(C)C)n4)cc3)cc2)c[nH]1` [Compound L-67] it was over 100 fold; in that of `CC(C)(C)[C@H](NC(=O)[C@@H]1COCCN1CC(F)(F)F)c1nc(-c2ccc(-c3ccc(-c4c[nH]c([C@@H](NC(=O)[C@@H]5COCCN5CC(F)(F)F)C(C)(C)C)n4)cc3)cc2)c[nH]1` [Compound L-68], over 100 fold.
Turning to `CC1(C(=O)N[C@H](c2nc(-c3ccc(-c4ccc(-c5c[nH]c([C@@H](NC(=O)C6(C)CCCO6)C(C)(C)C)n5)cc4)cc3)c[nH]2)C(C)(C)C)CCCO1` (stereo partly drawn) [Compound L-69], the “Fold-Synergistic 1a (Q30E)” value was over 100 fold.
Turning to `CC(C)(C)[C@H](NC(=O)CC1CCCO1)c1nc(-c2ccc(-c3ccc(-c4c[nH]c([C@@H](NC(=O)CC5CCCO5)C(C)(C)C)n4)cc3)cc2)c[nH]1` (stereo partly drawn) [Compound L-70], the “Fold-Synergistic 1a (Q30E)” value was over 100 fold.
With `CC(C)(C)[C@H](NC(=O)C1(O)CCC1)c1nc(-c2ccc(-c3ccc(-c4c[nH]c([C@@H](NC(=O)C5(O)CCC5)C(C)(C)C)n4)cc3)cc2)c[nH]1` [Compound L-71] the figure was over 100 fold; with `COC(=O)N[C@H](C(=O)N[C@H](c1nc(-c2ccc(-c3ccc(-c4c[nH]c([C@@H](NC(=O)[C@@H](NC(=O)OC)C5C[C@@H](C)O[C@H](C)C5)C(C)(C)C)n4)cc3)cc2)c[nH]1)C(C)(C)C)C1C[C@@H](C)O[C@H](C)C1` (stereo partly drawn) [Compound L-72], over 10 fold; with `CC(C)(C)[C@H](NC(=O)C1(O)CCCC1)c1nc(-c2ccc(-c3ccc(-c4c[nH]c([C@@H](NC(=O)C5(O)CCCC5)C(C)(C)C)n4)cc3)cc2)c[nH]1` [Compound L-73], over 100 fold.
Consider `CC(C)(C)[C@H](NC(=O)[C@H](O)C1CCCCC1)c1nc(-c2ccc(-c3ccc(-c4c[nH]c([C@@H](NC(=O)[C@H](O)C5CCCCC5)C(C)(C)C)n4)cc3)cc2)c[nH]1` [Compound L-74], for which the “Fold-Synergistic 1a (Q30E)” value was over 100 fold.
With `CC(C)(C)[C@H](NC(=O)CC1CCOC2(CC2)C1)c1nc(-c2ccc(-c3ccc(-c4c[nH]c([C@@H](NC(=O)CC5CCOC6(CC6)C5)C(C)(C)C)n4)cc3)cc2)c[nH]1` (stereo partly drawn) [Compound L-75] the figure was over 100 fold.
`CC(C)(C)[C@H](O)C(=O)N[C@H](c1nc(-c2ccc(-c3ccc(-c4c[nH]c([C@@H](NC(=O)[C@@H](O)C(C)(C)C)C(C)(C)C)n4)cc3)cc2)c[nH]1)C(C)(C)C` [Compound L-76]: the “Fold-Synergistic 1a (Q30E)” value is over 100 fold.
On to `CC(C)(C)[C@H](NC(=O)[C@@H](O)C1CCCCC1)c1nc(-c2ccc(-c3ccc(-c4c[nH]c([C@@H](NC(=O)[C@@H](O)C5CCCCC5)C(C)(C)C)n4)cc3)cc2)c[nH]1` [Compound L-77], for which the “Fold-Synergistic 1a (Q30E)” value is recorded as over 100 fold.
